Assay results published in PubChem BioAssay (NCI).
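At the GI50, growth is halved. TGI is the concentration that stops growth completely.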

What was measured:
Assay in all cases: NCI-60 cell line screen, 384-well format
HS 578T breast = tested on: HS 578T breast
HT29 colon = tested on: HT29 colon
BT-549 breast = tested on: BT-549 breast
MOLT-4 leukemia = tested on: MOLT-4 leukemia
SW-620 colon = tested on: SW-620 colon
DU-145 prostate = tested on: DU-145 prostate
KM12 colon = tested on: KM12 colon
NCI-H23 lung = tested on: NCI-H23 lung
HCT-116 colon = tested on: HCT-116 colon
HCT-15 colon = tested on: HCT-15 colon
HOP-92 NSCLC = tested on: HOP-92 NSCLC
SF-268 CNS = tested on: SF-268 CNS
UACC-62 melanoma = tested on: UACC-62 melanoma

CC(C)n1c(=O)n(C)c2cnc3cc(F)c(-c4ccc(OCCCN5CCCCC5)nc4)cc3c21
GI50 (HS 578T breast): 3.91 µM
TGI (HS 578T breast): 27.4 µM
GI50 (HT29 colon): 22.3 µM
TGI (HT29 colon): > 87.2 µM
GI50 (BT-549 breast): 9.56 µM
TGI (BT-549 breast): > 100 µM
GI50 (MOLT-4 leukemia): 5.66 µM
TGI (MOLT-4 leukemia): > 40.4 µM
GI50 (SW-620 colon): 19.5 µM
TGI (SW-620 colon): > 75.8 µM
GI50 (DU-145 prostate): > 89.7 µM
TGI (DU-145 prostate): > 100 µM
GI50 (KM12 colon): 4.57 µM
TGI (KM12 colon): > 100 µM
GI50 (NCI-H23 lung): > 77.1 µM
TGI (NCI-H23 lung): > 100 µM
GI50 (HCT-116 colon): 21.7 µM
TGI (HCT-116 colon): > 100 µM
GI50 (HCT-15 colon): 52.3 µM
TGI (HCT-15 colon): > 100 µM
GI50 (HOP-92 NSCLC): > 54.4 µM
TGI (HOP-92 NSCLC): > 100 µM
GI50 (SF-268 CNS): 45.4 µM
TGI (SF-268 CNS): > 100 µM
GI50 (UACC-62 melanoma): 31.9 µM
TGI (UACC-62 melanoma): > 100 µM

CS(=O)(=O)c1ccc(Oc2cc(F)cc(C#N)c2)c2c1[C@H](O)C(F)(F)C2
GI50 (HS 578T breast): > 100 µM
TGI (HS 578T breast): > 100 µM
GI50 (HT29 colon): > 100 µM
TGI (HT29 colon): > 100 µM
GI50 (BT-549 breast): > 100 µM
TGI (BT-549 breast): > 100 µM
GI50 (MOLT-4 leukemia): > 86.1 µM
TGI (MOLT-4 leukemia): > 100 µM
GI50 (SW-620 colon): > 100 µM
TGI (SW-620 colon): > 100 µM
GI50 (DU-145 prostate): > 100 µM
TGI (DU-145 prostate): > 100 µM
GI50 (KM12 colon): > 100 µM
TGI (KM12 colon): > 100 µM
GI50 (NCI-H23 lung): > 100 µM
TGI (NCI-H23 lung): > 100 µM
GI50 (HCT-116 colon): > 100 µM
TGI (HCT-116 colon): > 100 µM
GI50 (HCT-15 colon): > 100 µM
TGI (HCT-15 colon): > 100 µM
GI50 (HOP-92 NSCLC): > 100 µM
TGI (HOP-92 NSCLC): > 100 µM
GI50 (SF-268 CNS): > 100 µM
TGI (SF-268 CNS): > 100 µM
GI50 (UACC-62 melanoma): > 100 µM
TGI (UACC-62 melanoma): > 100 µM
